“Also recorded” adds a separate entry of the source. Where a name gives a salt, the structure may show the parent alone. Read-outs that look alike come from different tables or passages of the source.

One series deals with beta-adrenergic. Particulars: cited from earlier work.
The conditions of series [1]: human, in vivo; cited from earlier work.
For another series, the system named is calcium. Particulars: cited from earlier work.
The test system of series [2] is fast inward sodium channels. Particulars: hydrochloride; cited from earlier work.
The subject of series [3] is supraventricular and ventricular arrhythmias. Particulars: in vivo; hydrochloride; cited from earlier work.
For series [4] the following is noted: one patient; quinidine concomitantly with propafenone.
Series [5] relates to electrically induced arrhythmias, ventricular tachycardias, circus-movement flutter. Particulars: experimental animals; cited from earlier work.

On to `COCCc1ccc(OCC(O)CNC(C)C)cc1` (centres unmarked) [metoprolol], for which, in the series with beta-adrenergic, the beta-blocking activity result is given as “primarily a beta-adrenergic blocking agent”. Further, in series [1], the half-life (commonly how long it takes for the measured level to halve) was 3 to 7 h and the systemic bioavailability is reported as 40-50%.
In the case of `CCCNCC(O)COc1ccccc1C(=O)CCc1ccccc1` (centres unmarked) [propafenone, 2'-[3-(prophylamino)-2-(hydroxy)-(propoxy)-3-phenylpropiophenone hydrochloride], the beta-blocking activity entry with beta-adrenergic (hydrochloride) is reported as “only a weak beta-blocker”. The calcium antagonist activity entry in the series on calcium is “weak calcium antagonist activity”. In addition, the “blockade of fast sodium channels” value in series [2] is recorded as “blocks fast inward sodium channels; also recorded: blockade of the fast sodium channel”. Besides, in series [3], the “suppression of supraventricular and ventricular arrhythmias” value was “effective against recurrent supraventricular and ventricular arrhythmias; also recorded: effective in suppressing both supraventricular and ventricular arrhythmias”.
In the case of `C=C[C@H]1C[N@@]2CC[C@H]1C[C@@H]2[C@@H](O)c1ccnc2ccc(OC)cc12` [quinidine], the “effect on the blood levels of propafenone” value in series [4] is given as “very pronounced effect”. In series [5], the “"late" ventricular tachycardias following coronary artery occlusion” value is recorded as “prevent or terminate”, the circus-movement flutter entry is “terminate or prevent” and the “threshold for electrically induced arrhythmias” value was “raise the threshold”.
